Laboratory results from ChEMBL document CHEMBL6071148, “Synthesis and biological evaluation of novel 3,6- amide and thioamide substituted- 2,3,4,9-tetrahydro-1H-carbazoles for anti-cancer activity” (Eur J Med Chem, 2024).
Active and inactive are the calls of the source. No cut-off for these calls is given here.

How the values were obtained:
[1] = system: A549; assay: Cytotoxicity against human A549 cells assessed as inhibition of cell proliferation incubated for 72 hrs by MTT assay; assay type: functional, cell-based; conditions: A549, 72 h
[2] = system: Mitochondrial membrane; assay: Induction of mitochondrial membrane depolarization in human A549 cells assessed as decrease in ratio of J-aggregates to J-monomer incubated for 24 hrs by JC-1 staining based flow cytometric analysis (reference value: 17.72 +/- 3.94%); assay type: cell membranes
[3] = system: Mitochondrial membrane; assay: Induction of mitochondrial membrane depolarization in human A549 cells assessed as increase in mitochondrial fission by measuring appearance of spherical mitochondria by confocal microscopic analysis; assay type: cell membranes
[4] = Cytotoxicity against human MRC5 cells assessed as inhibition of cell proliferation incubated for 72 hrs by MTT assay; assay type: toxicity, cell-based
[5] = system: Mitochondrial membrane; assay: Disruption of mitochondrial membrane integrity in human MCF7 cells assessed as change in mitochondrial size by TEM analysis; assay type: cell membranes
[6] = system: Mitochondrial membrane; assay: Disruption of mitochondrial membrane integrity in human A549 cells assessed as mitochondrial swelling by TEM analysis; assay type: cell membranes
[7] = system: A549; assay: Antitumor activity against human A549 cells xenografted in chicken embryo chorioallantoic membrane assessed as reduction in tumor size; assay type: functional, cell-based; conditions: dose 1.5-4.5 µM
[8] = system: A549; assay: Inhibition of cell adhesion in human A549 cells assessed as reduction in cell aggregates formation at IC50 incubated for 48 hrs by inverted phase contrast microscopic analysis; assay type: functional, cell-based
[9] = system: Mitochondrial membrane; assay: Disruption of mitochondrial membrane integrity in human A549 cells assessed as disruption of normal mitochondrial distribution by TEM analysis; assay type: cell membranes
[10] = system: A549; assay: Antitumor activity against human A549 cells xenografted in chicken embryo chorioallantoic membrane assessed as change in nuclear morphology at 1.5 to 4.5 uM by H and E staining based analysis; assay type: functional, cell-based; conditions: dose 1.5-4.5 µM
[11] = system: MCF7; assay: Induction of apoptosis in human MCF7 cells assessed as increase in apoptotic cells incubated for 24 hrs by Annexin-V and 7-AAD staining based flow cytometric analysis (reference value: 5.70 +/- 1.56%); assay type: functional
[12] = system: Mitochondrial membrane; assay: Disruption of mitochondrial membrane integrity in human MCF7 cells assessed as change in mitochondrial internal organization by TEM analysis; assay type: cell membranes
[13] = system: A549; assay: Induction of cell cycle arrest in human A549 cells assessed as accumulation of cells at G2 phase at IC50 incubated for 24 hrs by PI staining based flow cytometric analysis (reference value: 23.45 +/- 1.62%); assay type: functional
[14] = system: HCT-116; assay: Inhibition of colony formation in human HCT-116 cells assessed as reduction in clonogenic capacity incubated for 24 hrs by crystal violet staining based analysis; assay type: functional, cell-based
[15] = system: MCF7; assay: Inhibition of cell adhesion in human MCF7 cells assessed as reduction in cell aggregates formation at IC50 incubated for 48 hrs by inverted phase contrast microscopic analysis; assay type: functional, cell-based
[16] = system: Mitochondrial membrane; assay: Disruption of mitochondrial membrane integrity in human A549 cells assessed as change in mitochondrial shape by TEM analysis; assay type: cell membranes
[17] = system: HCT-116; assay: Cytotoxicity against human HCT-116 cells assessed as inhibition of cell proliferation incubated for 72 hrs by MTT assay; assay type: functional, cell-based; conditions: HCT-116, 72 h
[18] = system: Mitochondrial membrane; assay: Disruption of mitochondrial membrane integrity in human MCF7 cells assessed as absence of well-developed cristae by TEM analysis; assay type: cell membranes
[19] = system: Mitochondrial membrane; assay: Disruption of mitochondrial membrane integrity in human MCF7 cells assessed as organization of mtDNA nucleoids within cells by TEM analysis; assay type: cell membranes

Activity [2]: 8.73
Activity [3]: Active
Activity [5]: Active
Activity [6]: Active
Activity [9]: Active
Activity [12]: Active
Activity [16]: Active
Activity [18]: Active
Compound: CC(=S)NC1CCc2[nH]c3ccc(Br)cc3c2C1 (centres undefined)
IC50 [1]: 4.54 µM
IC50 at 72 h [4]: > 50 µM
Activity [7]: Dose-Dependent Effect
inhibition [8]: Active
Activity [10]: Active
Activity [11]: 10.8%
Activity [13]: 14.3%
inhibition [14]: Dose-Dependent Effect
inhibition [15]: Active
IC50 [17]: 40 µM
Activity [19]: Active
